{
  "source": "paper PMC6934184",
  "about": "“Selective DNA-PKcs inhibition extends the therapeutic index of localized radiotherapy and chemotherapy” (The Journal of Clinical Investigation, 2019)",
  "biological_target": "T1, PI4KA (PI4K alpha) (Homo sapiens, UniProt P42356)",
  "T1 construct": "purchased Thermo Fisher Scientific (Life Technologies) SelectScreen",
  "T1 sequence (P42356 whole entry)": "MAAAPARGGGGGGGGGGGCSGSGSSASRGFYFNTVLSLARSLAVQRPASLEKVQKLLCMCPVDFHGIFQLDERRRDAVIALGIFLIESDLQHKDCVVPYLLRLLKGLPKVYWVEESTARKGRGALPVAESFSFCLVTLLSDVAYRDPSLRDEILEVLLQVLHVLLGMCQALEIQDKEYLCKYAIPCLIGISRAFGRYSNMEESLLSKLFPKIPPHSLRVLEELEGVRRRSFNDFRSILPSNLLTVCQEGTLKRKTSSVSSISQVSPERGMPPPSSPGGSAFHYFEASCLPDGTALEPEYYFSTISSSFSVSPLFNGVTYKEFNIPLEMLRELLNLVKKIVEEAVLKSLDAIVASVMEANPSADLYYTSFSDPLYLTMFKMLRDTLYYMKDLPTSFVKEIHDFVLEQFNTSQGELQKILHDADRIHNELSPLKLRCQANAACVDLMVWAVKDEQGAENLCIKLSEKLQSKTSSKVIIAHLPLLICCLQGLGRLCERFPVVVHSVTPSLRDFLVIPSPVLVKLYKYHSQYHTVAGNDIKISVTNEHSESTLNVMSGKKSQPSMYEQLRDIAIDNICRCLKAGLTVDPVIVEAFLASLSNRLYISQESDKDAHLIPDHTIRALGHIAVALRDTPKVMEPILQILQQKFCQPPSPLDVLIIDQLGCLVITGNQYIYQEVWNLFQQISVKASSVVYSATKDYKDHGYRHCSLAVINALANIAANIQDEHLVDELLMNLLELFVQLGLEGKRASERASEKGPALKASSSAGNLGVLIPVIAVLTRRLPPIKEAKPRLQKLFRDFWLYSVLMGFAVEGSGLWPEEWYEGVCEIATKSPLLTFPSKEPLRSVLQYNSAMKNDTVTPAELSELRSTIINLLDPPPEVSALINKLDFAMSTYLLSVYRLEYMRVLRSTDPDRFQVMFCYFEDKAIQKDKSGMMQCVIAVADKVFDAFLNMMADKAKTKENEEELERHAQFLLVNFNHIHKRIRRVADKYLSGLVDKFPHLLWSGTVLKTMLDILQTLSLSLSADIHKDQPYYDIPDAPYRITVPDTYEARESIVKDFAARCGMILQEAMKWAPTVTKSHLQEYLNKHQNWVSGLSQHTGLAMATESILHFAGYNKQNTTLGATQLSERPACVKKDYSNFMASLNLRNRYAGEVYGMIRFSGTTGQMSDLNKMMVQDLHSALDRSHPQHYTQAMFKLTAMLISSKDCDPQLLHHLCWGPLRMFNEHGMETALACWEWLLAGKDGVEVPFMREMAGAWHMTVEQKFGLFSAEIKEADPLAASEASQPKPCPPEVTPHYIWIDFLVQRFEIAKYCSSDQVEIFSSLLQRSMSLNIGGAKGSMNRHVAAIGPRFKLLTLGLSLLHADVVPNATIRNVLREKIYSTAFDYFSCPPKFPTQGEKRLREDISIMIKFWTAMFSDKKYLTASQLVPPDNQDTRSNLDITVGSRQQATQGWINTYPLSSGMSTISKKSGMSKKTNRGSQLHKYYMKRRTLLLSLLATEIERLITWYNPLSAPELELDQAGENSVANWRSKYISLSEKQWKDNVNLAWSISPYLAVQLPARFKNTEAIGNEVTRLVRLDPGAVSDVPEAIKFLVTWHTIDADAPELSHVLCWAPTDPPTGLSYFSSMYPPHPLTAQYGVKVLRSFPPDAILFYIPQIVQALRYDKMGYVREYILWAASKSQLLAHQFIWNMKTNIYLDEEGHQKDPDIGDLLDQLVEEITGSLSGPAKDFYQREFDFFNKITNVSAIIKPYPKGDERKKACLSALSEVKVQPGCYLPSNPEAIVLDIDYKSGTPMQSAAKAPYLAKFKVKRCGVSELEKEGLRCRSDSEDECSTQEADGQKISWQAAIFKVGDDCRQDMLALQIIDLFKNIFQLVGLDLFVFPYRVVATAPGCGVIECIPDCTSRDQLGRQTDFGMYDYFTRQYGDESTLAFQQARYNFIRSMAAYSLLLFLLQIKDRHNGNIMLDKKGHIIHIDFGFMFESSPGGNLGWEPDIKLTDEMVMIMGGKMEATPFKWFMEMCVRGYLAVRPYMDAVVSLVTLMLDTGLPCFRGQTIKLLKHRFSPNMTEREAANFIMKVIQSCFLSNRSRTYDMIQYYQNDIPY",
  "experiment": "SelectScreen Adapta",
  "type": "biochemical",
  "conditions": "ATP 10 µM",
  "description": "The in vitro kinase selectivity of NU5455 was determined using the SelectScreen Broad Assay Panel (Thermo Fisher Scientific) involving activity and binding assays (Supplemental Table 1). […] Class IA PI3Ks were measured using the p85α subunit.\nKinase [ATP] % Assay Kinase [ATP] % Assay Kinase [ATP] % Assay Kinase [ATP] % Assay […]\nSGK (SGK1) Km app 8.5 Z MAP4K2 (GCK) Km app 2.7 Z TLK2 n/a -0.3 L STK38 (NDR) n/a -5.9 L\nMERTK (cMER) Km app 8.3 Z CDK2/cyclin A Km app 2.7 Z TGFBR1 (ALK5) n/a -0.4 L MATK (HYL) Km app -6.3 Z\nFYN Km app 8.3 Z EPHA1 Km app 2.7 Z CLK3 Km app -0.5 Z ABL1 E255K Km app -6.6 Z\nTEC n/a 8.1 L CDK2/cyclin E1 n/a 2.7 L MAP3K14 (NIK) n/a -0.5 L STK17A (DRAK1) n/a -6.6 L\nKIT V654A n/a 8.1 L TESK2 n/a 2.7 L AKT3 (PKB gamma) Km app -0.5 Z JAK2 JH1 JH2 Km app -6.7 Z\nROS1 Km app 8.0 Z SPHK1 Km app 2.7 A MAP3K9 (MLK1) Km app -0.5 Z PRKACB (PRKAC beta) n/a -6.8 L\nFGFR3 K650E Km app 7.9 Z AMPK A2/B1/G1 Km app 2.6 Z IKBKB (IKK beta) Km app -0.6 Z PDGFRA (PDGFR alpha) Km app -6.8 Z\nRAF1 (cRAF) Y340D Y341D 100 7.9 Z DYRK3 Km app 2.6 Z CAMK2A (CaMKII alpha) Km app -0.6 Z NEK9 Km app -7.2 Z\nPI4KA (PI4K alpha) 10 7.8 A CSNK1D (CK1 delta) Km app 2.6 Z PRKCB1 (PKC beta I) Km app -0.7 Z PDK1 Km app -7.3 Z\nHIPK2 Km app 7.8 Z ACVR2A n/a 2.5 L TTK n/a -0.7 L RPS6KB1 (p70S6K) Km app -7.8 Z\nCSK Km app 7.6 Z DDR2 T654M n/a 2.5 L ZAK n/a -0.7 L STK38L (NDR2) n/a -8.4 L\nPRKCG (PKC gamma) Km app 7.6 Z JAK2 Km app 2.5 Z IKBKE (IKK epsilon) Km app -0.7 Z ABL1 G250E Km app -8.5 Z\nSRMS (Srm) Km app 7.5 Z HIPK3 (YAK1) Km app 2.5 Z CAMK2G (CaMKII gamma) n/a -0.8 L PRKD1 (PKC mu) Km app -8.5 Z\nYES1 Km app 7.4 Z AMPK (A1/B1/G2) n/a 2.4 L TLK1 n/a -0.8 L CDK5/p35 Km app -8.6 Z\nRPS6KA5 (MSK1) Km app 7.4 Z MYO3B (MYO3 beta) n/a 2.3 L MAPK12 (p38 gamma) Km app -0.8 Z PDGFRA T674I Km app -8.9 Z\nTNIK n/a 7.3 L PASK Km app 2.3 Z PRKCI (PKC iota) Km app -0.8 Z BLK Km app -8.9 Z\nFER Km app 7.1 Z ACVRL1 (ALK1) n/a 2.3 L PKN2 (PRK2) n/a -1.0 L PRKD2 (PKD2) Km app -9.1 Z\nCDK16 (PCTK1)/cyclin Y n/a 7.0 L EGFR (ErbB1) L861Q Km app 2.2 Z PIM1 Km app -1.0 Z CSNK1G2 (CK1 gamma 2) Km app -9.3 Z\nMST4 Km app 6.9 Z RPS6KA3 (RSK2) Km app 2.1 Z CDK5/p25 Km app -1.1 Z ROCK1 Km app -9.5 Z\nFLT1 (VEGFR1) Km app 6.5 Z STK23 (MSSK1) Km app 2.0 Z SRPK1 Km app -1.1 Z PRKCB2 (PKC beta II) Km app -9.6 Z\nDYRK1A Km app 6.4 Z ALK R1275Q n/a 2.0 L BRSK1 (SAD1) Km app -1.1 Z CSNK1G1 (CK1 gamma 1) Km app -9.9 Z\nPRKCD (PKC delta) Km app 6.2 Z TBK1 Km app 2.0 Z MAP3K3 (MEKK3) n/a -1.1 L ABL2 (Arg) Km app -10.3 Z\nEGFR (ErbB1) Km app 6.0 Z ACVR1B (ALK4) Km app 2.0 Z AMPK A1/B1/G1 Km app -1.2 Z STK3 (MST2) Km app -10.3 Z\nCDC7/DBF4 n/a 6.0 L CDK3/cyclin E1 n/a 1.9 L WNK3 n/a -1.2 L CAMK4 (CaMKIV) Km app -10.4 Z\nJAK3 Km app 6.0 Z KDR (VEGFR2) Km app 1.8 Z LATS1 n/a -1.3 L MKNK1 (MNK1) Km app -10.7 Z\nMAPK13 (p38 delta) Km app 5.8 Z ULK1 n/a 1.8 L DMPK n/a -1.5 L FLT3 ITD n/a -11.6 L\nFRAP1 (mTOR) Km app 5.7 Z AURKB (Aurora B) Km app 1.7 Z CDK2/cyclin A1 n/a -1.6 L CHEK2 (CHK2) Km app -11.7 Z\nKIT Y823D n/a 5.6 L LRRK2 Km app 1.7 A LIMK1 n/a -1.7 L LTK (TYK1) Km app -13.1 Z\nITK Km app 5.5 Z MAP2K3 (MEK3) n/a 1.6 L DYRK1B Km app -1.8 Z JAK2 JH1 JH2 V617F Km app -13.8 Z\nKIT Km app 5.3 Z DAPK1 Km app 1.6 A DDR1 n/a -1.8 L EPHA8 Km app -13.8 Z\nCDK7/cyclin H/MNAT1 Km app 5.3 A EPHA6 n/a 1.6 L BTK Km app -2.0 Z EGFR (ErbB1) T790M L858R Km app -14.1 Z\nRET Km app 5.2 Z MAP4K1 (HPK1) n/a 1.6 L ADRBK1 (GRK2) Km app -2.0 Z MET M1250T Km app -14.5 Z […]",
  "data": [
    {"smiles": "CN(C(=O)CN1CCOCC1)c1ccc2sc3c(-c4cccc5c(=O)cc(N6CC7CCC(C6)O7)oc45)cccc3c2c1", "note": "[NU5455]", "values": [
      {"measurement": "inhibition at 1 µM", "result": 7.8, "unit": "%"}
    ]}
  ]
}
